Source: ChEMBL document CHEMBL1201862, “PubChem BioAssay data set” (2004)
Activity calls are given as the source filed them. Cut-off read from the data, not from the text of the source, for most assays here: actives have a measured IC50 and inactives only a lower limit.

Assays:
Assay type in all cases: functional
[1] = biological target: T1, Sentrin-specific protease 8 (Homo sapiens, UniProt Q96LD8);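 note: luminescence read-out of SENP8 inhibition, dose-response confirmation following an ultra-high-throughput screen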
T1 sequence (Q96LD8 whole entry): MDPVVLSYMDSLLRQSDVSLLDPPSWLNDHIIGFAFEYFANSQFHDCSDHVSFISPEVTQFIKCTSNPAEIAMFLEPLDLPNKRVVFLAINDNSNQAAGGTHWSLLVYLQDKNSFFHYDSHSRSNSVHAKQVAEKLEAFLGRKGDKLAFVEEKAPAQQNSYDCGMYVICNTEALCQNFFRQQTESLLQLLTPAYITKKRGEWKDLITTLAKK

[2] = biological target: T2, Sentrin-specific protease 6 (Homo sapiens, UniProt Q9GZR1)
T2 sequence (Q9GZR1 whole entry): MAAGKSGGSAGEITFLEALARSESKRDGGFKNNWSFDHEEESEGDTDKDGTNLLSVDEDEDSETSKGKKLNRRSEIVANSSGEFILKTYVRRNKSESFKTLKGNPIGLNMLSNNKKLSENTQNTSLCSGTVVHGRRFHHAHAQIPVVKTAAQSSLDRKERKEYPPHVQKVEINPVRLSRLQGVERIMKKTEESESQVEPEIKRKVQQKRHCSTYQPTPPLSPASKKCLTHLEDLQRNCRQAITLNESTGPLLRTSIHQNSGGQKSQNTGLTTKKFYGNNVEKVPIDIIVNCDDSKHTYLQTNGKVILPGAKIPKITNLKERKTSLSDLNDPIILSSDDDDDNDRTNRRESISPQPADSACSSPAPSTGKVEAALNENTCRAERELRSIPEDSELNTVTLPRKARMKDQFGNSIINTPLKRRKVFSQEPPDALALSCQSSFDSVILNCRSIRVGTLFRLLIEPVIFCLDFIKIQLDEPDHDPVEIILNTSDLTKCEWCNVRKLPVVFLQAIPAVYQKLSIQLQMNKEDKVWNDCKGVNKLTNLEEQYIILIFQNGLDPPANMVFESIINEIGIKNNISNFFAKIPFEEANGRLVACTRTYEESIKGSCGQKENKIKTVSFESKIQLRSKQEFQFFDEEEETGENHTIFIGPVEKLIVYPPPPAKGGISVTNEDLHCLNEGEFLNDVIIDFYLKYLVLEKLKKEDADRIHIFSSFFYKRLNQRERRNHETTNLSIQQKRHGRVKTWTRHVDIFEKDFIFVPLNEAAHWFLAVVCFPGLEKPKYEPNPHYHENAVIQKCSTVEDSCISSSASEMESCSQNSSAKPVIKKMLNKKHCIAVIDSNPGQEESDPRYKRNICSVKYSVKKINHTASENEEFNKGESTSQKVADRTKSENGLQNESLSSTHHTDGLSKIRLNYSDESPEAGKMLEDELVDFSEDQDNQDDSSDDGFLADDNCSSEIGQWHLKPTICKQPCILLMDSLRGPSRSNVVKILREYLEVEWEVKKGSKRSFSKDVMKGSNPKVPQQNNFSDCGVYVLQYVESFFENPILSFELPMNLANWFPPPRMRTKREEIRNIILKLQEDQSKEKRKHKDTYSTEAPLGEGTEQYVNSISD

[3] = biological target: T3, Caspase-3 (Homo sapiens, UniProt P42574);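 note: Dose-response selectivity test against caspase-3 for candidate inhibitors of sentrin-specific proteases (SENPs)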
T3 sequence (P42574 whole entry): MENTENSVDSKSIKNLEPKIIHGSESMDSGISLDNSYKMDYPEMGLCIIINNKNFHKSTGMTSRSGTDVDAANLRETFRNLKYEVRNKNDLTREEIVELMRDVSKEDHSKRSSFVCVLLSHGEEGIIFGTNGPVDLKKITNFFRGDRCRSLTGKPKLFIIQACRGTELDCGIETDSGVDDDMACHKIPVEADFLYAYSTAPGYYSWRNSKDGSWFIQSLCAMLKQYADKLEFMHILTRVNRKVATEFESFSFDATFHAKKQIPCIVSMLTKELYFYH

[4] = biological target: T4, Sentrin-specific protease 7 (Homo sapiens, UniProt Q9BQF6);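 note: Luminescence-based dose-response confirmation of ultra-high-throughput screening hits, measuring inhibition of SENP7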
T4 sequence (Q9BQF6 whole entry): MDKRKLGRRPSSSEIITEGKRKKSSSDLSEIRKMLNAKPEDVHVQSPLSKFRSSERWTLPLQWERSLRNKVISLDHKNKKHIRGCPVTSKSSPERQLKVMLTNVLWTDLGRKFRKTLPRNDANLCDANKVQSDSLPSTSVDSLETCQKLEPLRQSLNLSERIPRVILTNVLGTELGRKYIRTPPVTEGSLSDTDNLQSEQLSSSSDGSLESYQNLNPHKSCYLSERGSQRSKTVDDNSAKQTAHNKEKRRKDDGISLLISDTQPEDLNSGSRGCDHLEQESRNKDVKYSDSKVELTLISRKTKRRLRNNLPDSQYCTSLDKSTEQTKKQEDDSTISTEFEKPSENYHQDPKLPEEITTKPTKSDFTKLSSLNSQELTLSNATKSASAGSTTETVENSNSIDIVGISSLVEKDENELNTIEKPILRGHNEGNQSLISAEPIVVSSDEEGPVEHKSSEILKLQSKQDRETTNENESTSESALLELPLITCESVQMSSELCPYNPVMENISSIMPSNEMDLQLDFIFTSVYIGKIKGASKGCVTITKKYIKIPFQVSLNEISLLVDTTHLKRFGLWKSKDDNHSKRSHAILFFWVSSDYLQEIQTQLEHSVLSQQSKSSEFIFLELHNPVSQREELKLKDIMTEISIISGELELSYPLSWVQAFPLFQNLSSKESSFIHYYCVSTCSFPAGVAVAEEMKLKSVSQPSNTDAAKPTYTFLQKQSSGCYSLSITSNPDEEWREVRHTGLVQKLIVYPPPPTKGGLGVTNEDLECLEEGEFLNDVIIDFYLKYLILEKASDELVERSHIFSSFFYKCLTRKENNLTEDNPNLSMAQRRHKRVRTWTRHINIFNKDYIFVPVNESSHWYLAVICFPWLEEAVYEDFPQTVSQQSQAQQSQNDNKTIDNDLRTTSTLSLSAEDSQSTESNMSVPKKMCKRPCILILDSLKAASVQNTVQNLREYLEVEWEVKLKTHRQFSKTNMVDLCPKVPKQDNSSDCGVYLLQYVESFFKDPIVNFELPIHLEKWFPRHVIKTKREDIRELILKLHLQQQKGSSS

[5] = biological target: T2, Sentrin-specific protease 6; test: SAR Analysis of small molecule inhibitors of Sentrin-specific protease 6 (SENP6) using a Luminescent assay. [Related pubchem assays (depositor defined):AID2582, AID2599]
[6] = biological target: T4, Sentrin-specific protease 7; test: inhibition of human SENP7 cleavage activity – biochemical, luminescence, SAR follow-up (AID 504497)
[7] = viability of HCT116 lacking mutant beta-catenin – cell-based, human colon tumor, dose response (AID 1045);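 note: HCT116 colon tumor cells with beta catenin knocked out; cells exposed to compound for 60 hours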

| Compound | IC50 [1] | IC50 [2] | IC50 [3] | IC50 [4] | IC50 [5] | IC50 [6] | EC50 [7] |
| --- | --- | --- | --- | --- | --- | --- | --- |
| CCOC(=O)C1=C(COC(=O)c2ccc([N+](=O)[O-])s2)NC(=O)NC1C (stereo unspecified) | 3.57 µM (active) | 4.48 µM (active) | 8.13 µM (active) | 6.1 µM (active) |  |  |  |
| Oc1cccc(/C=N/Nc2cc(N3CCCC3)nc(N3CCCC3)n2)c1 | 17.2 µM (active) | 6.69 µM (active) | > 100 µM (inactive) | 9.99 µM (active) | 20.4 µM (active) | 49.7 µM (active) | 18.8 µM (active) |
